# According to ChEMBL document CHEMBL1201862, “PubChem BioAssay data set” (2004):
#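 Following 48 hours of exposure in 96-well plates, responses at five concentrations were used to interpolate endpoints linearly. Abbreviation: GI50, concentration required for 50% inhibition of growth.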 Active and inactive are the calls of the source. Rule as the data show it: active = GI50 up to about 1.1 µM and inactive = higher.
# Tests used:
# Assay in all cases: NCI anticancer screen, dose series, 48 h
# DMS-273 = system: DMS-273
# HCC 2998 = system: HCC 2998
# DMS-114 = system: DMS-114
# K562 = system: K562
# OVCAR-5 = system: OVCAR-5
# SK-MEL-28 = system: SK-MEL-28
# U-251 = system: U-251
# NCI-H460 = system: NCI-H460
# KM-20L2 = system: KM-20L2
# HOP-18 = system: HOP-18
# HT-29 = system: HT-29
# SK-OV-3 = system: SK-OV-3
# ACHN = system: ACHN
# NCI-H522 = system: NCI-H522
# KM12 = system: KM12
# SF-268 = system: SF-268
# EKVX = system: EKVX
# HOP-62 = system: HOP-62
# COLO 205 = system: COLO 205
# NCI-H23 = system: NCI-H23
# A549 = system: A549
# OVCAR-8 = system: OVCAR-8
# CAKI-1 = system: CAKI-1
# M19-MEL = system: M19-MEL
# OVCAR-3 = system: OVCAR-3
# RPMI-8226 = system: RPMI-8226
# SK-MEL-5 = system: SK-MEL-5
# UO-31 = system: UO-31
# CCRF-CEM = system: CCRF-CEM
# LXFL 529 = system: LXFL 529
# TK-10 = system: TK-10
# SK-MEL-2 = system: SK-MEL-2
# 786-0 = system: 786-0
# HOP-92 = system: HOP-92
# SF-539 = system: SF-539
# M14 = system: M14
# HCT-15 = system: HCT-15
# SNB-75 = system: SNB-75
# SF-295 = system: SF-295
# HL-60 = system: HL-60
# IGROV-1 = system: IGROV-1
# UACC-257 = system: UACC-257
# RXF 393 = system: RXF 393
# SW-620 = system: SW-620
# OVCAR-4 = system: OVCAR-4
# SN12C = system: SN12C
# DLD-1 = system: DLD-1
# MOLT-4 = system: MOLT-4
# UACC-62 = system: UACC-62
# RXF 631 = system: RXF 631
# Malme-3M = system: Malme-3M
# LOX IMVI = system: LOX IMVI
compound,measurement,setting,value
N#CC(C#N)=C1NN=C(Cl)c2ccccc21,GI50,DMS-273,> 100 µM (inactive)
same,GI50,HCC 2998,> 100 µM (inactive)
same,GI50,DMS-114,> 100 µM (inactive)
same,GI50,K562,> 100 µM (inactive)
same,GI50,OVCAR-5,> 100 µM (inactive)
same,GI50,SK-MEL-28,61.8 µM (inactive)
same,GI50,U-251,96.4 µM (inactive)
same,GI50,NCI-H460,> 100 µM (inactive)
same,GI50,KM-20L2,> 100 µM (inactive)
same,GI50,HOP-18,37.3 µM (inactive)
same,GI50,HT-29,> 100 µM (inactive)
same,GI50,SK-OV-3,> 100 µM (inactive)
same,GI50,ACHN,> 100 µM (inactive)
same,GI50,NCI-H522,72.1 µM (inactive)
same,GI50,KM12,> 100 µM (inactive)
same,GI50,SF-268,72.9 µM (inactive)
same,GI50,EKVX,> 100 µM (inactive)
same,GI50,HOP-62,67.8 µM (inactive)
same,GI50,COLO 205,> 100 µM (inactive)
same,GI50,NCI-H23,59.4 µM (inactive)
same,GI50,A549,> 100 µM (inactive)
same,GI50,OVCAR-8,> 100 µM (inactive)
same,GI50,CAKI-1,> 100 µM (inactive)
same,GI50,M19-MEL,> 100 µM (inactive)
same,GI50,OVCAR-3,> 100 µM (inactive)
same,GI50,RPMI-8226,57.3 µM (inactive)
same,GI50,SK-MEL-5,> 100 µM (inactive)
same,GI50,UO-31,50.7 µM (inactive)
same,GI50,CCRF-CEM,88.1 µM (inactive)
same,GI50,LXFL 529,65 µM (inactive)
same,GI50,TK-10,> 100 µM (inactive)
same,GI50,SK-MEL-2,> 100 µM (inactive)
same,GI50,786-0,> 100 µM (inactive)
same,GI50,HOP-92,47.2 µM (inactive)
same,GI50,SF-539,85.5 µM (inactive)
same,GI50,M14,> 100 µM (inactive)
same,GI50,HCT-15,> 100 µM
same,GI50,SNB-75,33.9 µM (inactive)
same,GI50,SF-295,> 100 µM (inactive)
same,GI50,HL-60,43.2 µM (inactive)
same,GI50,IGROV-1,> 100 µM (inactive)
same,GI50,UACC-257,98.6 µM (inactive)
same,GI50,RXF 393,> 100 µM (inactive)
same,GI50,SW-620,> 100 µM (inactive)
same,GI50,OVCAR-4,> 100 µM (inactive)
same,GI50,SN12C,96.4 µM (inactive)
same,GI50,DLD-1,> 100 µM (inactive)
same,GI50,MOLT-4,> 100 µM (inactive)
same,GI50,UACC-62,70.5 µM (inactive)
same,GI50,RXF 631,80.5 µM (inactive)
same,GI50,Malme-3M,30.3 µM (inactive)
same,GI50,LOX IMVI,> 100 µM (inactive)
